The text below walks through data of US20250129021A1, “SMALL MOLECULE PROTEIN SYNTHESIS MODULATORS” (Interdict Bio, Inc., priority 2023, published 2025).

Read-outs that look alike come from different tables or passages of the source.

What all share (type): biochemical
For test [1], the system named is MYC. Put plainly: In vitro transcription-translation (IVTT) assay, MYC reporter. As to conditions: IVTT assay, HeLa S3 lysate, MYC reporter, normalized sfGFP/mCherry ratio; half-log dilutions 30 μM-0.1 μM, 2 hrs at 30° C. In a few lines: (§1)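 Reporter: mCherry, P2A, then 3×FLAG-target peptide-sfGFP fusion, IRES-initiated; HeLa S3 lysate IVTT; cpd dilutions 30 μM−0.1 μM half-log in 100% DMSO (dilution-plate conc); DNA added last; 2 h, 30° C; PBS quench.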

Test [2] has as its system MCL-1. Put plainly: In vitro transcription-translation (IVTT) assay, MCL-1 reporter. As to conditions: HeLa S3 lysate, read-out: MCL1 IC50. In a few lines:
as §1

Test [3] has as its system CCNE1. Put plainly: In vitro transcription-translation (IVTT) assay, CCNE1 reporter. As to conditions: HeLa S3 lysate, sfGFP/mCherry ratio. As for the experimental part: In vitro transcription-translation assay setup: Each assay includes a master mix containing lysate and shared components, a 96-well plate containing compound titrations for testing, a 96-well DNA plate with reporter constructs to be tested, 96-well skirted PCR plates, and 96-well flat-bottom, black, fluorescent assay plates. Reaction materials setup: (A) Master mix—15 mL conical tube (3 mL of HeLa S3 Lysate described above; 0.6 mL of ThermoFisher Accessory Proteins (#88882); 1.2 ml of ThermoFisher Reaction Mix (#88882); 0.54 mL of nuclease-free Water); (B) 96-Well Master Mix+Compound Plate (Half-log dilutions (30 μM−0.1 μM) of 4 compounds of interest are prepared in 100% DMSO); 96-Well DNA Plate (Five DNA constructs are plated into single columns within the plate. Row 1 of the column contains nuclease free H2O, all other wells contain 110 ng/μL plasmid DNA). Reactions are started by mixing 155 μL of master mix and 3.5 μL of compound serial dilutions, then 9.1 μL of master mix+compound mixture is aliquoted across 5 96-well plates. Reactions begin with final addition of 2 μL of DNA for a 11.1 μL reaction volume in each well. The entire plate is sealed, and incubated for 2 hrs at 30° C. After 2 hrs, quench the assay using 45 μL of PBS, and transfer 50 μL to a flat-bottom black microplate Quantify the sfGFP and mCherry signals from each well on each plate, taking 3 reads of each plate, and perform data analysis below.
In vitro transcription-translation assay data analysis: Each plate is read three times in channels for both sfGFP and mCherry signals. The average signal across these 3 reads is then calculated for further analysis. Control wells containing no DNA reporter are subtracted from reporter wells in the same column to remove auto-fluorescence of the lysate. Then, the ratio of sfGFP/mCherry is calculated per well, and these ratios are averaged across the triplicate experiments on the same plate. Finally, the ratio of each titration concentration is normalized to the no drug control to create the normalized stalling metric. The error on this measurement is determined by propagating error through the averaging and normalization steps. Values are plotted and fit for IC50 determination for each test sequence and titration of compound.

Test [4] concerns CCNE1. The test is described as above. As to conditions: HeLa S3 lysate, 2 hrs at 30° C. In short, it runs like this: (§2)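 HeLa S3 lysate-based coupled transcription-translation reactions with reporter plasmids, compounds in half-log dilutions (30 μM−0.1 μM, in DMSO), 2 h at 30° C. sfGFP/mCherry ratio, corrected for no-DNA background, normalized to no-drug control and fitted for IC50.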

In test [5] the test system is CCND1. The test is described as follows: In vitro transcription-translation (IVTT) assay, CCND1 reporter. To be noted: IVTT, HeLa S3 lysate, 2 hrs at 30° C. In short, it runs like this: as §1
The test system of test [6] is CCNTB1. The test is described as follows: In vitro transcription-translation (IVTT) assay, CCNTB1 reporter. As to conditions: HeLa S3 lysate, 2 hrs at 30° C. In short, it runs like this:
as §2

The mark [7] stands for this setting: IVTT assay, sfGFP/mCherry ratio.

Regarding `O=C(NCc1cccc(C2CNC2)c1)O[C@@H]1[C@@H](O)CN[C@@H]1Cc1ccc(-c2cc(C(F)F)cs2)cc1` [V193243, (2R,3S,4S)-2-(4-(4-(difluoromethyl)thiophen-2-yl)benzyl)-4-hydroxypyrrolidin-3-yl (3-(azetidin-3-yl)benzyl)carbamate], the IC50 in test [1], in test [2] (setting [7]) and in test [3] was < 10 µM in each case.

Take `O=C(NCC[C@@H]1CCN1)O[C@@H]1[C@@H](O)CN[C@@H]1Cc1ccc(-c2cnco2)cc1F` [V192990, (2R,3S,4S)-2-(2-fluoro-4-(oxazol-5-yl)benzyl)-4-hydroxypyrrolidin-3-yl (2-((S)-azetidin-2-yl)ethyl)carbamate]: the IC50 in test [1], in test [2] (setting [7]) and in test [3] was < 10 µM each time.

For the compound `O=C(NCc1cc(F)cc(F)c1)O[C@@H]1[C@@H](O)CN[C@@H]1Cc1ccc(-c2cnco2)cc1` [V193071, (2R,3S,4S)-4-hydroxy-2-(4-(oxazol-5-yl)benzyl)pyrrolidin-3-yl (3,5-difluorobenzyl)carbamate], the half-inhibitory concentration (IC50) in test [1], in test [2] (setting [7]) and in test [3] was < 10 µM each time.

Take `O=C(NCc1cnn(C(F)F)c1)O[C@@H]1[C@@H](O)CN[C@@H]1Cc1ccc(-c2cnco2)cc1` [V193078, (2R,3S,4S)-4-hydroxy-2-(4-(oxazol-5-yl)benzyl)pyrrolidin-3-yl ((1-(difluoromethyl)-1H-pyrazol-4-yl)methyl)carbamate]: the concentration for half-maximal inhibition (IC50) in test [1], in test [2] (setting [7]) and in test [3] was < 10 µM throughout.

Consider `O=C(NCC[C@@H]1CCNC1)O[C@@H]1[C@@H](O)CN[C@@H]1Cc1ccc(C(F)F)cc1` [V193010, (2R,3S,4S)-2-(4-(difluoromethyl)benzyl)-4-hydroxypyrrolidin-3-yl (2-((S)-pyrrolidin-3-yl)ethyl)carbamate], for which the results for the IC50 in test [1], in test [2] (setting [7]) and in test [3] were < 10 µM, 10 to 20 µM and < 10 µM, respectively.

In the case of `O=C(NCc1cccc2c1CNC2)O[C@@H]1[C@@H](O)CN[C@@H]1Cc1ccc(C(F)F)cc1` [V193139, (2R,3S,4S)-2-(4-(difluoromethyl)benzyl)-4-hydroxypyrrolidin-3-yl (isoindolin-4-ylmethyl)carbamate], the 50% inhibitory concentration (IC50) in test [1], in test [2] (setting [7]) and in test [3] was < 10 µM each time.

Consider `O=C(NCC[C@@H]1CCCN1)O[C@@H]1[C@@H](O)CN[C@@H]1Cc1ccc(-c2cnn(C(F)F)c2)cc1` [V193080, (2R,3S,4S)-2-(4-(1-(difluoromethyl)-1H-pyrazol-4-yl)benzyl)-4-hydroxypyrrolidin-3-yl (2-((S)-pyrrolidin-2-yl)ethyl)carbamate], for which the IC50 in test [1], in test [2] (setting [7]) and in test [3] was < 10 µM each time.

Regarding `O=C(NCc1cccc(OC(F)F)c1)O[C@@H]1[C@@H](O)CN[C@@H]1Cc1ccc(-c2cnco2)cc1` [V193068, (2R,3S,4S)-4-hydroxy-2-(4-(oxazol-5-yl)benzyl)pyrrolidin-3-yl (3-(difluoromethoxy)benzyl)carbamate], the half-maximal inhibitory concentration (IC50) in test [1], in test [2] (setting [7]) and in test [3] was < 10 µM throughout.

Turning to `O=C(NCCc1cccc(F)c1)O[C@@H]1[C@@H](O)CN[C@@H]1Cc1ccc(-c2cnco2)cc1` [V193069, (2R,3S,4S)-4-hydroxy-2-(4-(oxazol-5-yl)benzyl)pyrrolidin-3-yl (3-fluorophenethyl)carbamate], the 50% inhibitory concentration (IC50) in test [1], in test [2] (setting [7]) and in test [3] was < 10 µM each time.

For the compound `COc1ccc(C[C@H]2NC[C@H](O)[C@H]2OC(=O)NCc2ccc3cn[nH]c3c2)cc1` [V188151, (2R,3S,4S)-4-hydroxy-2-[(4-methoxyphenyl)methyl]pyrrolidin-3-yl N-(1H-indazol-6-ylmethyl)carbamate], the concentration for half-maximal inhibition (IC50) (as a rule, the concentration needed to halve the response being measured) in test [4] was < 10 µM; in test [5] it was < 10 µM; in test [6], < 10 µM; in test [1] it was < 10 µM; in test [2] (IVTT, 2 hrs at 30° C.), < 10 µM.

Turning to `O=C(NCC[C@H]1CCCCNC1)O[C@@H]1[C@@H](O)CN[C@@H]1Cc1ccc(-c2cnco2)cc1` [V193012, (2R,3S,4S)-4-hydroxy-2-(4-(oxazol-5-yl)benzyl)pyrrolidin-3-yl (2-((R)-azepan-3-yl)ethyl)carbamate], the 50% inhibitory concentration (IC50) in test [1], in test [2] (setting [7]) and in test [3] was < 10 µM each time.

Take `O=C(NCc1cccc(F)c1)O[C@@H]1[C@@H](O)CN[C@@H]1Cc1ccc(-c2cc(C(F)F)cs2)cc1` [V193142, (2R,3S,4S)-2-(4-(4-(difluoromethyl)thiophen-2-yl)benzyl)-4-hydroxypyrrolidin-3-yl (3-fluorobenzyl)carbamate]: the half-inhibitory concentration (IC50) was < 10 µM in test [1], < 10 µM in test [2] (setting [7]) and 10 to 20 µM in test [3].

Consider `O=C(NCC[C@@H]1CCNC1)O[C@@H]1[C@@H](O)CN[C@@H]1Cc1ccc(-c2cnco2)cc1` [V193011, (2R,3S,4S)-4-hydroxy-2-{[4-(1,3-oxazol-5-yl)phenyl]methyl}pyrrolidin-3-yl N-{2-[(3S)-pyrrolidin-3-yl]ethyl}carbamate], for which the 50% inhibitory concentration (IC50) in test [1], in test [2] (setting [7]) and in test [3] was < 10 µM throughout.

Take `O=C(NCC[C@@H]1CCCCNC1)O[C@@H]1[C@@H](O)CN[C@@H]1Cc1ccc(-c2cnco2)cc1` [V193013, (2R,3S,4S)-4-hydroxy-2-{[4-(1,3-oxazol-5-yl)phenyl]methyl}pyrrolidin-3-yl N-{2-[(3S)-azepan-3-yl]ethyl}carbamate]: the half-inhibitory concentration (IC50) in test [1], in test [2] (setting [7]) and in test [3] was < 10 µM in each case.

Regarding `O=C(NCCOC(F)F)O[C@@H]1[C@@H](O)CN[C@@H]1Cc1ccc(-c2cnco2)cc1` [V193066, (2R,3S,4S)-4-hydroxy-2-(4-(oxazol-5-yl)benzyl)pyrrolidin-3-yl (2-(difluoromethoxy)ethyl)carbamate], the IC50 in test [1], in test [2] (setting [7]) and in test [3] was < 10 µM throughout.

`O=C(NCc1cc[nH]c(=O)c1)O[C@@H]1[C@@H](O)CN[C@@H]1Cc1ccc(Cl)cc1` [V188274, (2R,3S,4S)-2-[(4-chlorophenyl)methyl]-4-hydroxypyrrolidin-3-yl N-[(2-oxo-1H-pyridin-4-yl)methyl]carbamate]: the IC50 in test [4] is < 10 µM; in test [5], < 10 µM; in test [6], < 10 µM; in test [1] it was < 10 µM; in test [2] (IVTT, 2 hrs at 30° C.), < 10 µM.

For the compound `COc1ccc(C[C@H]2NC[C@H](O)[C@H]2OC(=O)NCCn2ccnc2N)cc1` [V188086, (2R,3S,4S)-4-hydroxy-2-[(4-methoxyphenyl)methyl]pyrrolidin-3-yl N-[2-(2-aminoimidazole-1-yl)ethyl]carbamate], the 50% inhibitory concentration (IC50) in test [4] is < 10 µM; in test [5], 10 to 20 µM; in test [6] it was < 10 µM; in test [1], 10 to 20 µM; in test [2] (IVTT, 2 hrs at 30° C.) it was 10 to 20 µM.

For `COc1ccc(C[C@H]2NC[C@H](O)[C@H]2OC(=O)NCCC2CCNCC2)cc1` [V188229, (2R,3S,4S)-4-hydroxy-2-[(4-methoxyphenyl)methyl]pyrrolidin-3-yl N-[2-(piperidin-4-yl)ethyl]carbamate], the IC50 in test [4] is 10 to 20 µM; in test [5] it was 10 to 20 µM; in test [6], < 10 µM; in test [1], < 10 µM; in test [2] (IVTT, 2 hrs at 30° C.) it was < 10 µM.

On to `COc1ccc(C[C@H]2NC[C@H](O)[C@H]2OC(=O)NC[C@H]2CCN(c3ncccn3)C2)cc1` [V188171, (2R,3S,4S)-4-hydroxy-2-[(4-methoxyphenyl)methyl]pyrrolidin-3-yl N-{[(3R)-1-(pyrimidin-2-yl)pyrrolidin-3-yl]methyl}carbamate], for which the IC50 was 10 to 20 µM in test [4]; 10 to 20 µM in test [5]; < 10 µM in test [6]; 10 to 20 µM in test [1]; < 10 µM in test [2] (IVTT, 2 hrs at 30° C.).
